In US10598653B2, “Methods of blocking cancer stem cell growth” (Bionomics Inc., priority 2011, dated 2020):

Experiments:
[1] = test system: colon tumor cells re-implanted in secondary recipients; experiment: Secondary transplant tumor formation after GPR49 mAb+irinotecan; type: in vivo, mice; conditions: 140 day follow-up
Excerpt: Isolated tumor cells from control or GPR49 mAb+irinotecan treated tumors from the in vivo study outlined in Example 3 were harvested, pooled, dissociated and re-implanted in a limiting dilution secondary transplant assay to measure cancer stem cell frequency. For each treatment group, 8 mice were implanted with 10, 30, 100 cells. […]

[2] = test system: CT1 primary colon tumor xenograft; experiment: CT1 primary colon tumor xenograft, combination with Irinotecan; type: in vivo, SCID beige female mice; conditions: 10 mg/kg IP once per day for the first 5 days
Method: Single agent in vivo efficacy of murine antibodies 14F7.1, 18G7.1, 5B10.1, 14A8.1, 1B3.5 was evaluated in a primary colon tumor xenograft model system using CT1 primary xenograft cells. CT1 is a primary colorectal (CRC) in vivo xenograft tumor established from a fresh CRC patient tumor sample. The mutational status was determined by Ion Torrent deep sequencing to identify oncogene mutations. Approximately 5-15% of CT1 tumors express GPR49. SCID beige female mice were inoculated with CT1 tumor cells and monitored for tumor growth. Mice were randomized at day 0 into groups of 10 when mean tumor volume reached 175 mm^3. Chemotherapeutic Irinotecan was administered IP at 10 mg/kg once per day for the first 5 days. The antibodies were administered intraperitoneally (i.p.) at 15 mg/kg administered twice weekly for 4 weeks. Tumors were measured at the indicated intervals post-inoculation for total tumor volume.

GPR49-Fc = molecular target: T1, GPR49-Fc (Homo sapiens, UniProt O75473); experiment: Solution affinity surface plasmon resonance of RSPO-1 on GPR49-Fc; conditions: initial binding rates, GPR49-Fc competition
T1 construct: FLAG (C)
Method: Methods: Binding of RSPO to GPR49 was analyzed using solution affinity surface plasmon resonance (Day E S, et al. Biochemistry. 2005 Feb. 15; 44(6):1919-31). The method utilizes conditions of so-called “mass-transport-limited” binding, in which the initial rate of ligand binding (protein binding to the sensor chip) is proportional to the concentration of ligand in solution (BIApplications Handbook (1994) Chapter 6: Concentration measurement, pp 6-1-6-10, Pharmacia Biosensor AB). Under these conditions, binding of the soluble analyte (protein flowing over chip surface) to the immobilized protein on the chip is fast compared to the diffusion of the analyte into the dextran matrix on the chip surface. Therefore, the diffusion properties of the analyte and the concentration of analyte in solution flowing over the chip surface determine the rate at which analyte binds to the chip. In this experiment, the concentration of free RSPO-1 in solution is determined by the initial rate of binding to a CM5 Biacore chip containing immobilized GPR49-Fc. Into these RSPO-1 solutions were titrated the competing GPR49-Fc.

T1 sequence (O75473 with tags, fused parts or gaps): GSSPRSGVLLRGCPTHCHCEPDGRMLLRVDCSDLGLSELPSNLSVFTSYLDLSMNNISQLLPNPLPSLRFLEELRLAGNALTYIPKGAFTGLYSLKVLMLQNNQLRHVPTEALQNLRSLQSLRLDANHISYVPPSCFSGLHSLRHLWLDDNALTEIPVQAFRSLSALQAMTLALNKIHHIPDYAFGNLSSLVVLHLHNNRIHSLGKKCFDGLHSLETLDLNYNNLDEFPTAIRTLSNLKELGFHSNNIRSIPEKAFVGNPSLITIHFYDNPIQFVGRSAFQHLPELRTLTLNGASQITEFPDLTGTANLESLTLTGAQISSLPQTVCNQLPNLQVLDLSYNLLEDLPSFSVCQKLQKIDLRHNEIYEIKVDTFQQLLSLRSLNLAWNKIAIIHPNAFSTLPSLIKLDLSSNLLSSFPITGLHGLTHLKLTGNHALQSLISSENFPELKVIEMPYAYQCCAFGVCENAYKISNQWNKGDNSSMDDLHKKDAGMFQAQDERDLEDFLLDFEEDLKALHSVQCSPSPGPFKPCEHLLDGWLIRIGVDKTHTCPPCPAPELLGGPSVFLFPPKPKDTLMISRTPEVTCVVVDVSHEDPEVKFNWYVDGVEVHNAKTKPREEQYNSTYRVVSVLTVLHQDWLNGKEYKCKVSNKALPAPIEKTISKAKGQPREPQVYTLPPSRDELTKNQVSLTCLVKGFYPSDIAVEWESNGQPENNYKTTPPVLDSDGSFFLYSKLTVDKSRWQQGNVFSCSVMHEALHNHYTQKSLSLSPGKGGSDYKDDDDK

Molecule: CCc1c2c(nc3ccc(OC(=O)N4CCC(N5CCCCC5)CC4)cc13)-c1cc3c(c(=O)n1C2)COC(=O)[C@]3(O)CC [Irinotecan]
- average tumor size [1]: 1729 mm^3
- tumor inhibition, Irinotecan alone [2]: 45%

B1: R-spondin 1: R-spondin family Wnt-pathway modulator protein, purchased from R& D systems (protein, UniProt Q2MKA7 21-263, looked up)
R-spondin-1: SRGIKGKRQRRISAEGSQACAKGCELCSEVNGCLKCSPKLFILLERNDIRQVGVCLPSCPPGYFDARNPDMNKCIKCKIEHCEACFSHNFCTKCKEGLYLHKGRCYPACPEGSSAANGTMECSSPAQCEMSEWSPWGPCSKKQQLCGFRRGSEERTRRVLHAPVGDHAACSDTKETRRCTVRRVPCPEGQKRRKGGQGRRENANRNLARKESKEAGAGSRRRKGQQQQQQQGTVGPLTSAGPA
- binding profile (GPR49-Fc): bi-phasic binding profile
